We go through five compounds from US12208098B2, “4-carbonylamino-4-phenylpyrimidine compound or pharmaceutically acceptable salt thereof” (Gachon University Of Industry-Academic Cooperation …, priority 2018, dated 2025).

The target of this assay is T1, Glutamate Dehydrogenase (GDH) (Rattus norvegicus, UniProt P10860).
T1 construct: only the supernatant was collected and transferred to a new tube to obtain a cell lysate; endogenous in cells; host or cells: INS-1 cell line (lysate)
Nature of the assay: Enzyme activation experiment: GDH Activity Colorimetric Assay Kit on INS-1 cell lysate. It counts as biochemical. The settings on record: vehicle-treated group set to 1. The method, then: Enzyme Activation Experiment
A sufficient amount of cells was obtained by culturing the INS-1 cell line under general cell culture condition (37° C. 5% CO2). Immediately before use in the experiment, a culture dish of the INS-1 cells was placed on ice, the culture medium was removed, and then washed with cold phosphate-buffered saline (PBS) (WELGEME, LB 001-02) to obtain a cell pellet.
To the harvested cell pellet, an appropriate amount of ice-cold Assay Buffer contained in the Glutamate Dehydrogenase (GDH) Activity Colorimetric Assay Kit (BioVision, K729-100) was added and then homogenized in the tube.
The tube was subjected to centrifuge in a condition of 13,000 g, 4° C. for 10 minutes, and then the pellet was discarded, and only the supernatant was collected and transferred to a new tube to obtain a cell lysate. Then, the protein concentration of the cell lysate was measured using Pierce™ BCA Protein Assay kit (Thermo, 23225).
By referring to the measured protein concentration, the cell lysate was prepared by diluting its concentration to 30 μg/50 μL or 100 μg/50 μL using the Assay Buffer.
The prepared cell lysate+vehicle or compound+Reaction mix was added according to the volume determined in the protocol of the Glutamate Dehydrogenase (GDH) Activity Colorimetric Assay Kit and reacted at 37° C., and the absorbance at 450 nm was measured using a kinetic method.
The GDH activity was calculated according to the calculation formula shown in the Assay Kit, and then the activity of the group treated with the vehicle was set to 1, and the folds of the remaining groups were calculated, and the results are shown in Table 2 below and FIG. 1.

T1 sequence (P10860 54-558): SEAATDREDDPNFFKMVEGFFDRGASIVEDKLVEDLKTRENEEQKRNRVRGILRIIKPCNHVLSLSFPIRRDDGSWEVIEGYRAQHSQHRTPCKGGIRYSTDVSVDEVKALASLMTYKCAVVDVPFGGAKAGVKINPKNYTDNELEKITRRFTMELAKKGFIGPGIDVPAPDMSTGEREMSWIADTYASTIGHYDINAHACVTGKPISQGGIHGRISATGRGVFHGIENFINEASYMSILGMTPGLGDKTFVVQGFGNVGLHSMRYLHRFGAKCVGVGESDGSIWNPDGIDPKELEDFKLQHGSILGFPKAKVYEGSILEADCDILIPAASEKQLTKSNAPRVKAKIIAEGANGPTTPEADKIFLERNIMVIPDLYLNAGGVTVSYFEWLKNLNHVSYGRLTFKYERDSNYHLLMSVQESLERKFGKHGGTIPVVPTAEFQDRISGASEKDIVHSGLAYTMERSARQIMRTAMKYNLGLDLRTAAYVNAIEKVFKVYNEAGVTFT

As to `Nc1nccc(-c2ccc(NC(=O)c3ccc(Br)cc3)cc2)n1` [Compound 6, N-(4-(2-aminopyrimidin-4-yl)phenyl)-4-bromobenzamide], the “Enzyme activity (fold)” value amounted to 2.14 fold (compound concentration 0.2 μM) and 6.93 fold (compound concentration 2 μM).
Consider `COc1cc(C(=O)Nc2ccc(-c3ccnc(N)n3)cc2)ccc1Cl` [Compound 7, N-(4-(2-aminopyrimidin-4-yl)phenyl)-4-chloro-3-methoxybenzamide], for which the “Enzyme activity (fold)” value runs as follows: (compound concentration 0.2 μM) 1.94 fold; (compound concentration 2 μM) 3.23 fold.
For `Nc1nccc(-c2ccc(NC(=O)c3ccc(Cl)cc3)cc2)n1` [Compound 8, N-(4-(2-aminopyrimidin-4-yl)phenyl)-4-chlorobenzamide], the “Enzyme activity (fold)” value reads like this: (compound concentration 0.2 μM) 1.34 fold; (compound concentration 2 μM) 11.05 fold.
For `Nc1nccc(-c2ccc(NC(=O)c3cc(Cl)cc(Cl)c3)cc2)n1` [Compound 9, N-(4-(2-aminopyrimidin-4-yl)phenyl)-3,5-dichlorobenzamide] the same measures were 1.13 fold and 6.43 fold.
For `Nc1nccc(-c2ccc(NC(=O)c3cccc(C(F)(F)F)c3F)cc2)n1` [Compound 10, N-(4-(2-aminopyrimidin-4-yl)phenyl)-2-fluoro-3-(trifluoromethyl)benzamide] the same measures were 2.08 fold and 10.83 fold.
